Values after ≈ are worked out from the molar mass of the structure shown. Structures can show the parent of a compound that is named as a salt. Where two headings read alike, the source gives them in different places.
Columns and labels:
Format in all cases: cell-based
[1] = system: S. aureus ATCC 49951 (NB01006); assay: MIC by broth microdilution, S. aureus NB01006; conditions: Staphylococcus aureus, ATCC49951, CAMHB, 35° C., 20 hours, read-out: Antibacterial activity (MIC) NB01006
How it was run: (§1)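 CAMHB, ~5×10^5 CFU/mL, 2-fold serial dilutions (final DMSO 1%), 35° C, ambient air, 20 h. Read OD600 plus visual check; MIC = lowest conc. with no visible growth, μg/mL.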

[2] = system: S. aureus NB01006-AVR005, gyrA (S84L), grlA (580F) and grlB (E471K); assay: microbe, parasite or virus in culture; conditions: Staphylococcus aureus, 20 h, read-out: Antibacterial activity (MIC) NB01006-AVR005
How it was run: as §1

[3] = system: S. aureus NB01080 fluoroquinolone-resistant clinical isolate; assay: MIC by broth microdilution, S. aureus NB01080; conditions: Staphylococcus aureus, CAMHB, 35° C., 20 hours, read-out: Antibacterial activity (MIC) NB01080
How it was run: as §1

[4] = system: E. faecalis ATCC 29212 (NB04001); assay: MIC by broth microdilution, E. faecalis NB04001; conditions: Enterococcus faecalis, ATCC29212, CAMHB, 35° C., 20 hours, read-out: Antibacterial activity (MIC) NB04001
How it was run: as §1

[5] = system: S. pneumoniae ATCC 25922 (NB07001); assay: MIC by broth microdilution, S. pneumoniae NB07001; conditions: Streptococcus pneumoniae, read-out: Antibacterial activity (MIC) NB07001
How it was run: as §1

[6] = system: E. coli ATCC 25922 (NB27001); assay: MIC by broth microdilution, E. coli NB27001; conditions: Escherichia coli, ATCC25922, CAMHB, 35° C., 20 hours, read-out: Antibacterial activity (MIC) NB27001
How it was run: as §1

[7] = system: P. aeruginosa NB52019, wild-type PAO1 strain; assay: MIC by broth microdilution, P. aeruginosa NB52019; conditions: Pseudomonas aeruginosa, CAMHB, 35° C., 20 hours, read-out: Antibacterial activity (MIC) NB52019
How it was run: as §1

[8] = ATCC25922, S. pneumoniae, CAMHB supplemented with 5% lysed horse blood, 35° C., 20 hours

C[C@H]1CSc2c(N3CC[C@@H](C4(N)CC4)C3)c(F)cc3cc(C(=O)O)c(=O)n1c23.Cl [Example 11, (S)-10-((R)-3-(1-aminocyclopropyl)pyrrolidin-1-yl)-9-fluoro-3-methyl-5-oxo-2,3-dihydro-5H-[1,4]thiazino[2,3,4-ij]quinoline-6-carboxylic acid hydrochloride salt]
MIC [1]: < 1 mg/L
MIC [2]: 1 to 32 mg/L
MIC [3]: < 1 mg/L
MIC [4]: < 1 mg/L
MIC [5, 8]: < 1 mg/L
MIC [6]: 1 to 32 mg/L
MIC [7]: > 32 mg/L

C[C@H]1COc2c(N3CC[C@@H](C4(N)CC4)C3)cc(F)c3cc(C(=O)O)c(=O)n1c23 [Example 12.1, (S)-10-((R)-3-(1-aminocyclopropyl)pyrrolidin-1-yl)-8-fluoro-3-methyl-5-oxo-2,3-dihydro-5H-[1,4]oxazino[2,3,4-ij]quinoline-6-carboxylic acid trifluoroacetate salt]
MIC [1]: < 1 mg/L
MIC [2]: < 1 mg/L
MIC [3]: < 1 mg/L
MIC [4]: < 1 mg/L
MIC ([5]; ATCC25922, 20 h): < 1 mg/L
MIC [6]: < 1 mg/L
MIC [7]: 1 to 32 mg/L

C[C@H](N)[C@@H]1CCN(c2cc(F)c3cc(C(=O)O)c(=O)n4c3c2OC[C@@H]4C)C1 [Example 12.2, (S)-10-((R)-3-((S)-1-aminoethyl)pyrrolidin-1-yl)-8-fluoro-3-methyl-5-oxo-2,3-dihydro-5H-[1,4]oxazino[2,3,4-ij]quinoline-6-carboxylic acid]
MIC [1]: < 1 mg/L
MIC [2]: 1 to 32 mg/L (≈ 2.66 to 85.2 µM)
MIC [3]: 1 to 32 mg/L (≈ 2.66 to 85.2 µM)
MIC [4]: < 1 mg/L
MIC ([5]; ATCC25922, 20 h): < 1 mg/L
MIC [6]: 1 to 32 mg/L (≈ 2.66 to 85.2 µM)
MIC [7]: 1 to 32 mg/L (≈ 2.66 to 85.2 µM)

C[C@H](N)[C@@H]1CCN(c2ccc3cc(C(=O)O)c(=O)n4c3c2OC[C@@H]4C)C1 [Example 12.4, (S)-10-((R)-3-((S)-1-aminoethyl)pyrrolidin-1-yl)-3-methyl-5-oxo-2,3-dihydro-5H-[1,4]oxazino[2,3,4-ij]quinoline-6-carboxylic acid]
MIC [1]: < 1 mg/L
MIC [2]: 1 to 32 mg/L (≈ 2.8 to 89.5 µM)
MIC [3]: 1 to 32 mg/L (≈ 2.8 to 89.5 µM)
MIC [4]: < 1 mg/L
MIC ([5]; ATCC25922, 20 h): < 1 mg/L
MIC [6]: 1 to 32 mg/L (≈ 2.8 to 89.5 µM)
MIC [7]: 1 to 32 mg/L (≈ 2.8 to 89.5 µM)

C[C@H]1COc2c(N3CCC(F)(CN)C3)ccc3cc(C(=O)O)c(=O)n1c23 (stereo partly drawn) [Example 12.5, (3S)-10-(3-(aminomethyl)-3-fluoropyrrolidin-1-yl)-3-methyl-5-oxo-2,3-dihydro-5H-[1,4]oxazino[2,3,4-ij]quinoline-6-carboxylic acid]
MIC [1]: 1 to 32 mg/L (≈ 2.77 to 88.6 µM)
MIC [2]: > 32 mg/L
MIC [3]: 1 to 32 mg/L (≈ 2.77 to 88.6 µM)
MIC [4]: 1 to 32 mg/L (≈ 2.77 to 88.6 µM)
MIC ([5]; ATCC25922, 20 h): 1 to 32 mg/L (≈ 2.77 to 88.6 µM)
MIC [6]: 1 to 32 mg/L (≈ 2.77 to 88.6 µM)
MIC [7]: > 32 mg/L

C[C@H]1COc2c(N3CC4CC4(N)C3)ccc3cc(C(=O)O)c(=O)n1c23 (stereo partly drawn) [Example 12.6, (3S)-10-(1-amino-3-azabicyclo[3.1.0]hexan-3-yl)-3-methyl-5-oxo-2,3-dihydro-5H-[1,4]oxazino[2,3,4-ij]quinoline-6-carboxylic acid]
MIC [1]: 1 to 32 mg/L (≈ 2.93 to 93.7 µM)
MIC [2]: > 32 mg/L
MIC [3]: 1 to 32 mg/L (≈ 2.93 to 93.7 µM)
MIC [4]: 1 to 32 mg/L (≈ 2.93 to 93.7 µM)
MIC ([5]; ATCC25922, 20 h): 1 to 32 mg/L (≈ 2.93 to 93.7 µM)
MIC [6]: 1 to 32 mg/L (≈ 2.93 to 93.7 µM)
MIC [7]: > 32 mg/L

C[C@H]1COc2c(N3CC[C@@H](C4(N)CC4)C3)c(F)c(F)c3cc(C(=O)O)c(=O)n1c23 [Example 13.1, (S)-10-((R)-3-(1-aminocyclopropyl)pyrrolidin-1-yl)-8,9-difluoro-3-methyl-5-oxo-2,3-dihydro-5H-[1,4]oxazino[2,3,4-ij]quinoline-6-carboxylic acid hydrochloride salt]
MIC [1]: < 1 mg/L
MIC [2]: < 1 mg/L
MIC [3]: < 1 mg/L
MIC [4]: < 1 mg/L
MIC ([5]; ATCC25922, 20 h): < 1 mg/L
MIC [6]: < 1 mg/L
MIC [7]: 1 to 32 mg/L

C[C@H](N)[C@@H]1CCN(c2c(F)c(F)c3cc(C(=O)O)c(=O)n4c3c2OC[C@@H]4C)C1 [Example 13.2, (S)-10-((R)-3-((S)-1-aminoethyl)pyrrolidin-1-yl)-8,9-difluoro-3-methyl-5-oxo-2,3-dihydro-5H-[1,4]oxazino[2,3,4-ij]quinoline-6-carboxylic acid]
MIC [1]: < 1 mg/L
MIC [2]: < 1 mg/L
MIC [3]: < 1 mg/L
MIC [4]: < 1 mg/L
MIC ([5]; ATCC25922, 20 h): < 1 mg/L
MIC [6]: < 1 mg/L
MIC [7]: 1 to 32 mg/L (≈ 2.54 to 81.3 µM)

C[C@H]1COc2c(N3CCN(C)CC3)c(F)c(F)c3cc(C(=O)O)c(=O)n1c23 [Example 13.3]
MIC [1]: 1 to 32 mg/L (≈ 2.64 to 84.4 µM)
MIC [2]: > 32 mg/L
MIC [3]: > 32 mg/L
MIC [4]: > 32 mg/L
MIC [5, 8]: > 32 mg/L
MIC [6]: 1 to 32 mg/L (≈ 2.64 to 84.4 µM)
MIC [7]: > 32 mg/L

C[C@H]1COc2c(N3CCC(F)(CN)C3)c(F)c(F)c3cc(C(=O)O)c(=O)n1c23 (stereo partly drawn) [Example 13.5, (3S)-10-(3-(aminomethyl)-3-fluoropyrrolidin-1-yl)-8,9-difluoro-3-methyl-5-oxo-2,3-dihydro-5H-[1,4]oxazino[2,3,4-ij]quinoline-6-carboxylic acid]
MIC [1]: < 1 mg/L
MIC [2]: 1 to 32 mg/L (≈ 2.52 to 80.5 µM)
MIC [3]: 1 to 32 mg/L (≈ 2.52 to 80.5 µM)
MIC [4]: < 1 mg/L
MIC ([5]; ATCC25922, 20 h): < 1 mg/L
MIC [6]: 1 to 32 mg/L (≈ 2.52 to 80.5 µM)
MIC [7]: > 32 mg/L

C[C@H]1COc2c(N3CC[C@@H](C4(N)CCC4)C3)c(F)c(F)c3cc(C(=O)O)c(=O)n1c23 [Example 13.8, (S)-10-((R)-3-(1-aminocyclobutyl)pyrrolidin-1-yl)-8,9-difluoro-3-methyl-5-oxo-2,3-dihydro-5H-[1,4]oxazino[2,3,4-ij]quinoline-6-carboxylic acid]
MIC [1]: < 1 mg/L
MIC [2]: < 1 mg/L
MIC [3]: < 1 mg/L
MIC [4]: < 1 mg/L
MIC ([5]; ATCC25922, 20 h): < 1 mg/L
MIC [6]: 1 to 32 mg/L (≈ 2.38 to 76.3 µM)
MIC [7]: 1 to 32 mg/L (≈ 2.38 to 76.3 µM)

C[C@H]1COc2c(N3CC[C@@H](C4(N)CC4)C3)c(F)c(N)c3cc(C(=O)O)c(=O)n1c23 [Example 14, (S)-8-amino-10-((R)-3-(1-aminocyclopropyl)pyrrolidin-1-yl)-9-fluoro-3-methyl-5-oxo-2,3-dihydro-5H-[1,4]oxazino[2,3,4-ij]quinoline-6-carboxylic acid hydrochloride salt]
MIC [1]: < 1 mg/L
MIC [2]: 1 to 32 mg/L
MIC [3]: 1 to 32 mg/L
MIC [4]: < 1 mg/L
MIC ([5]; ATCC25922, 20 h): < 1 mg/L
MIC [6]: 1 to 32 mg/L
MIC [7]: > 32 mg/L

COc1c(N2CC[C@@H](C3(N)CC3)C2)c2c3c(cc(C(=O)O)c(=O)n3[C@@H](C)CO2)c1N [Example 15, (S)-8-amino-10-((R)-3-(1-aminocyclopropyl)pyrrolidin-1-yl)-9-methoxy-3-methyl-5-oxo-2,3-dihydro-5H-[1,4]oxazino[2,3,4-ij]quinoline-6-carboxylic acid formate salt]
MIC [1]: > 32 mg/L
MIC [2]: > 32 mg/L
MIC [3]: > 32 mg/L
MIC [4]: > 32 mg/L
MIC ([5]; ATCC25922, 20 h): 1 to 32 mg/L
MIC [6]: > 32 mg/L
MIC [7]: > 32 mg/L

COc1cc2cc(C(=O)O)c(=O)n3c2c(c1N1CC[C@@H](C2(N)CC2)C1)OC[C@@H]3C [Example 16, (S)-10-((R)-3-(1-aminocyclopropyl)pyrrolidin-1-yl)-9-methoxy-3-methyl-5-oxo-2,3-dihydro-5H-[1,4]oxazino[2,3,4-ij]liquinoline-6-carboxylic acid formate salt]
MIC [1]: > 32 mg/L
MIC [2]: > 32 mg/L
MIC [3]: > 32 mg/L
MIC [4]: > 32 mg/L
MIC ([5]; ATCC25922, 20 h): 1 to 32 mg/L
MIC [6]: > 32 mg/L
MIC [7]: > 32 mg/L

C[C@H]1COc2c(N3CC[C@@H](C4(N)CC4)C3)c(C#N)cc3cc(C(=O)O)c(=O)n1c23 [Example 17, (S)-10-((R)-3-(1-aminocyclopropyl)pyrrolidin-1-yl)-9-cyano-3-methyl-5-oxo-2,3-dihydro-5H-[1,4]oxazino[2,3,4-ij]quinoline-6-carboxylic acid trifluoroacetate salt]
MIC [1]: < 1 mg/L
MIC [2]: 1 to 32 mg/L
MIC [3]: 1 to 32 mg/L
MIC [4]: < 1 mg/L
MIC ([5]; ATCC25922, 20 h): < 1 mg/L
MIC [6]: > 32 mg/L
MIC [7]: > 32 mg/L

C[C@H]1COc2c(N3CC[C@@H](C4(N)CC4)C3)c(Cl)cc3cc(C(=O)O)c(=O)n1c23 [Example 18, (S)-10-((R)-3-(1-aminocyclopropyl)pyrrolidin-1-yl)-9-chloro-3-methyl-5-oxo-2,3-dihydro-5H-[1,4]oxazino[2,3,4-ij]quinoline-6-carboxylic acid hydrochloride salt]
MIC [1]: 1 to 32 mg/L
MIC [2]: > 32 mg/L
MIC [3]: 1 to 32 mg/L
MIC [4]: 1 to 32 mg/L
MIC ([5]; ATCC25922, 20 h): < 1 mg/L
MIC [6]: > 32 mg/L
MIC [7]: > 32 mg/L

C[C@H]1COc2c(N3CC[C@@H](C4(N)CC4)C3)c(F)c(Cl)c3cc(C(=O)O)c(=O)n1c23 [Example 19.1, (S)-10-((R)-3-(1-aminocyclopropyl)pyrrolidin-1-yl)-8-chloro-9-fluoro-3-methyl-5-oxo-2,3-dihydro-5H-[1,4]oxazino[2,3,4-ij]quinoline-6-carboxylic acid formate salt]
MIC [1]: < 1 mg/L
MIC [2]: < 1 mg/L
MIC [3]: < 1 mg/L
MIC [4]: < 1 mg/L
MIC ([5]; ATCC25922, 20 h): < 1 mg/L
MIC [6]: 1 to 32 mg/L
MIC [7]: > 32 mg/L

From patent US20180318311A1, “TRICYCLIC 2-QUINOLINONES AS ANTIBACTERIALS” (priority 2017, published 2018)
